Experimental findings from paper PMC6628648, “Enabling microbial syringol conversion through structure-guided protein engineering” (Proceedings of the National Academy of Sciences of the …, 2019) are described below.

The experiment deals with GcoA-F169A (Amycolatopsis sp., UniProt P0DPQ7, F169A). Description: End-point stoichiometry and coupling assay (formaldehyde by tryptophan assay, aromatics by HPLC, NADH by UV/vis). The format is biochemical, Amycolatopsis sp. ATCC 39116. Also on record: GST (N, cleaved yes); made in house; host or cells: E. coli Rosetta 2 (DE3). As to conditions: for Coupling efficiency: F169A, molar ratio formaldehyde produced per NADH consumed, 200 µM NADH, 200 µM aromatic substrate; for % Formaldehyde produced: referenced to NADH consumed; for formaldehyde produced at reaction completion: 100 μM substrate. The text has this: Fig. 1. Quantitative analyses of substrate consumption and product generation indicate nearly complete coupling of NADH/O2 consumption to substrate O-demethylation for guaiacol and progressively more uncoupling for syringol and 3MC. […] Reactants and products were quantified when the UV/vis spectrum ceased changing and the reaction was deemed complete. The total NADH consumed is compared with the amounts of formaldehyde and demethylated aromatic compound produced. Pyrogallol, the O-demethylated product of 3MC, is unstable in air under the conditions used in the assay and was not detected. Error bars represent ±1 SD from three or more independent measurements. P values comparing NADH consumption and formaldehyde production were 0.035 for guaiacol, 0.20 for 100 µM syringol, 0.41 for 200 µM syringol, and 0.0035 for 3MC. For NADH consumption and aromatic product production, these P values were 0.011 for guaiacol, 0.00031 for 100 µM syringol, and 0.0084 for 200 µM syringol.
GcoA-F169A, sequence (P0DPQ7 whole entry F169A): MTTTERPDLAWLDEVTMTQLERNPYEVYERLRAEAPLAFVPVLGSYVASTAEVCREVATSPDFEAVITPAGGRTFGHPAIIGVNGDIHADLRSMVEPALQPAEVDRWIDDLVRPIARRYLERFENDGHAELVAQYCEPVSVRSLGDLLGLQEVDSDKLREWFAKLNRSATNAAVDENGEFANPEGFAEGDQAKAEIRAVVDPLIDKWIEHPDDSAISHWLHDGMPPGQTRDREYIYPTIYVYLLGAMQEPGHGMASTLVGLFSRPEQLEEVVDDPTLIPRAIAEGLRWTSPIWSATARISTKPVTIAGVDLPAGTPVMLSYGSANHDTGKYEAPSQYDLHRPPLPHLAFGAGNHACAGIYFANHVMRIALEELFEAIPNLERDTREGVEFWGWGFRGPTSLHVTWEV
The [formaldehyde] produced on reaction with GcoA-F169A and substrates was determined using a colorimetric assay with tryptophan ([28], [42]); details are provided in SI Appendix.
HPLC was used to verify the O-demethylated product of GcoA-F169A GcoA/GcoB with guaiacol, syringol, or 3MC. In addition, discontinuous HPLC was used to determine the specific activity of aromatic product disappearance. Details are provided in SI Appendix. […]
vi = Vmax[S]/(KM + [S]) (4) […]
Formaldehyde determination. A colorimetric assay using tryptophan can be used to quantify the amount of formaldehyde produced in F169 GcoA/B reactions with guaiacol, syringol, or 3MC. 0.2 µM each of F169 GcoA mutants and GcoB were dissolved in air-saturated buffer (25 mM HEPES, 50 mM NaCl) in a cuvette at pH 7.5, 25 °C. 100 µg/mL catalase was added to each reaction to capture any H2O2 formed during the uncoupled reaction. 200 μM NADH was added and the background rate recorded. 100 (guaiacol, syringol, or 3MC) or 200 (syringol) μM of substrate was then added and the reaction monitored until there was no more change, due to either substrate, NADH or O2 depletion, whichever occurred first. 200 µL of the reaction was then quenched by adding 200 µL of a 0.1% tryptophan solution in 50% ethanol and 200 µL of 90% sulfuric acid. Upon thorough mixing, 40 µL of 1% FeCl3 was added. The solution was then incubated in a heating block for 90 min at 70 °C. After cooling, the absorbance was read at 575 nm and the [formaldehyde] calculated by using ε575 nm = 4.2 mM-1 cm-1, obtained with formaldehyde as a standard (1). A negative control included everything but the substrate and was used as a baseline.
HPLC for product identification and specific activity measurement. Analyte analysis of the above end-point reactions (100 μM guaiacol, syringol, or 3MC, or 200 μM syringol) was performed on an Agilent 1100 LC system (Agilent Technologies) equipped with a G1315B diode array detector (DAD). Each sample and standard was injected at a volume of 10 μL onto a Symmetry C18 column 5 μm, 4.6 x 150 mm column (Waters). The column temperature was maintained at 30 °C and the buffers used to separate the analytes of interest was 0.01% TFA in water (A)/ acetonitrile (B). The separation was carried out using a gradient program of: (A) = 99% and (B) = 1% at time t = 0 min; (A) = 99% and (B) = 1% at time t = 2 min, (A) = 50% and (B) = 50% at t = 8 min; (A) = 1% and (B) = 99% at t = 8.01 min; (A) = 99% and (B) = 1% at t = 10.01 min; (A) = 99% and (B) = 1% at t = 11 min. The flow rate was held constant at 1.5 mL min-1, resulting in a run time of 11 minutes. DAD wavelengths of 210 and 325 nm were used for analysis of the analytes of interest. Standard curves were generated using 0-500 μM of guaiacol, syringol, 3MC, catechol, and pyrogallol. Integrated intensities vs [standards] were plotted and the resulting standard curves used to quantify the reactants and products. […]

[1] abbreviates: GcoA-F169A, 100 µM substrate + 100 µM NADH.
Setting [2] is: GcoA-F169A, 200 μM NADH, 210 μM O2.
Setting [3] is: GcoA-F169A, NADH and syringol ∼200 μM each, 210 μM O2.

Regarding `COc1cccc(O)c1O` [3MC, 3-methoxycatechol], the Coupling efficiency came out at 64 ± 10%. Besides, the “% Formaldehyde produced” value under setting [1] is on record as 52 ± 7%. Moreover, the “formaldehyde produced at reaction completion” value under setting [2] is about 100 µM.
With `COc1ccccc1O` [guaiacol, 2-methoxyphenol], the Coupling efficiency came to 103 ± 7%. For the same molecule, the “% Formaldehyde produced” value under setting [1] is reported as 100 ± 10%.
With `COc1cccc(OC)c1O` [syringol, 2,6-dimethoxyphenol], the Coupling efficiency was found to be 104 ± 6%. The “% Formaldehyde produced” value under setting [1] is 125 ± 6%. In addition, where the note is “GcoA-F169A, 100 µM substrate + 200 µM NADH”, the “% Formaldehyde produced” value was found to be 91 ± 8%. Also, under setting [2], the “formaldehyde produced at reaction completion” value was 170 ± 10 µM. The “singly demethylated intermediate 3MC observed at the end of the reaction” value (GcoA-F169A, 100 μM syringol, 200 μM NADH, 210 μM O2) worked out at 50 ± 4 µM. Under setting [3], this molecule displayed a 3MC generated of 120 ± 2 µM, a formaldehyde generated of 200 ± 3 µM and a syringol consumed of 150 ± 6 µM.
